This is an account of results in ChEMBL document CHEMBL1201862, “PubChem BioAssay data set” (2004).

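Method: 48-hour compound exposure of cells in 96-well plates, five concentrations, linear interpolation of endpoints. The concentration for 50% growth inhibition is given as GI50.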 Calls of active or inactive are those of the source. Cut-off read from the data, not from the text of the source: active = GI50 up to about 1.1 µM and inactive = higher.

Some test systems named below: PC-3; Hs-578T; TK-10; NCI-H226; ACHN; NCI-H460; SF-539; K562; U-251; SN12C; T47D; SNB-19; 786-0; OVCAR-8; MOLT-4; A549; HOP-92; HL-60; Malme-3M; UACC-62.
Common to all, as to experiment: growth of human tumour cells (NCI), 48 h

Regarding `CC[C@@]1(O)C(=O)OCc2c1cc1n(c2=O)Cc2cc3c(NC(=O)CN)cccc3nc2-1`, the GI50 with PC-3 is 4.92 µM (inactive); with Hs-578T, > 36.2 µM (inactive); in the experiment with TK-10, 10.4 µM (inactive); in the experiment with NCI-H226 it was 0.217 µM (active); with ACHN it was 0.0521 µM (active); in the experiment on NCI-H460 it was < 0.0318 µM (active). Besides, the GI50 was < 0.0241 µM (active) in the experiment on SF-539; 1.37 µM (inactive) in the experiment with K562; 0.0906 µM (active) in the experiment with U-251; < 0.0115 µM (active) with SN12C; < 0.0236 µM (active) in the experiment on T47D; 0.154 µM (active) in the experiment on SNB-19. Besides, the GI50 in the experiment on 786-0 was 0.0612 µM (active); with OVCAR-8, 0.392 µM (active); in the experiment with MOLT-4 it was < 0.0199 µM (active); in the experiment on A549 it was 0.766 µM (active); in the experiment on HOP-92 it was 3.48 µM (inactive); in the experiment on HL-60 it was < 0.0362 µM (active). The values for the GI50 in the experiment on Malme-3M and in the experiment with UACC-62 were 1.41 µM (inactive) and 0.0506 µM (active), respectively.
With `Cc1noc(NC(=O)Nc2ccccc2F)c1C#N`, the GI50 in the experiment with PC-3 was > 21.5 µM (inactive); in the experiment with Hs-578T, > 34.4 µM (inactive); in the experiment on TK-10, > 27.2 µM (inactive); in the experiment on NCI-H226, > 100 µM (inactive); with ACHN, 22.2 µM (inactive); with NCI-H460 it was 6.55 µM (inactive). The GI50 was > 100 µM (inactive) in the experiment on SF-539; > 45.8 µM (inactive) in the experiment on K562; 21.5 µM (inactive) in the experiment with U-251; 16.1 µM (inactive) with SN12C; 18.3 µM (inactive) in the experiment with T47D; > 35 µM (inactive) in the experiment with SNB-19. Moreover, the GI50 with 786-0 is 7.69 µM (inactive); with OVCAR-8, > 90.8 µM (inactive); with MOLT-4 it was 48.9 µM (inactive); in the experiment on A549 it was 26.1 µM (inactive); with HOP-92, > 100 µM (inactive); in the experiment on HL-60, 84.5 µM (inactive). Besides, the GI50 in the experiment with Malme-3M was 28.8 µM (inactive); in the experiment with UACC-62, > 27.4 µM (inactive).
Consider `Clc1ccc(/C=C/c2nc(Cl)c(-c3ccc(Cl)cc3)c(Cl)n2)cc1`, for which the GI50 in the experiment with PC-3 was 42.6 µM (inactive); in the experiment with Hs-578T, > 100 µM (inactive); with TK-10, 62.5 µM (inactive); in the experiment with NCI-H226, 80.9 µM (inactive); in the experiment on ACHN, 35.2 µM (inactive); in the experiment with NCI-H460, 61 µM (inactive). In addition, the GI50 in the experiment with SF-539 was 57.7 µM (inactive); with K562, 32.1 µM (inactive); with U-251, 40.6 µM (inactive); with SN12C it was 89.9 µM (inactive); in the experiment on T47D, 38.3 µM (inactive); with SNB-19 it was > 100 µM (inactive). In addition, the GI50 was 43.8 µM (inactive) in the experiment with 786-0; > 100 µM (inactive) in the experiment on OVCAR-8; 32.5 µM (inactive) with MOLT-4; 37.9 µM (inactive) in the experiment with A549; > 100 µM (inactive) in the experiment with HOP-92; 14.3 µM (inactive) with HL-60. For the same compound, the GI50 in the experiment on Malme-3M and in the experiment with UACC-62 was > 100 µM (inactive) each time.
On to `CSc1c(C#N)c(N)nc2c(/N=N\c3ccc(Br)cc3)c(N)nn12`, for which the GI50 is 8.3 µM (inactive) with PC-3; 2.37 µM (inactive) in the experiment on Hs-578T; 15 µM (inactive) in the experiment with TK-10; 21.5 µM (inactive) with NCI-H226; 7 µM (inactive) in the experiment with ACHN; 12.8 µM (inactive) with NCI-H460. Also, the GI50 in the experiment with SF-539 is 9.18 µM (inactive); in the experiment on K562, 2.75 µM (inactive); in the experiment on U-251, 6.58 µM (inactive); in the experiment on SN12C, 6.65 µM (inactive); in the experiment on T47D it was 2 µM (inactive); in the experiment with SNB-19, 28.4 µM (inactive). Also, the GI50 in the experiment with 786-0 was 6.17 µM (inactive); with OVCAR-8, 5.85 µM (inactive); in the experiment with MOLT-4, 3.63 µM (inactive); with A549 it was 8.99 µM (inactive); with HOP-92 it was 6.81 µM (inactive); with HL-60, 2.82 µM (inactive). Also, the values for the GI50 with Malme-3M and in the experiment with UACC-62 were 8.69 µM (inactive) and 7.26 µM (inactive), respectively.
